Earlier results as cited in paper PMC11481577, “Allosteric coupling of substrate binding and proton translocation in MmpL3 transporter from Mycobacterium tuberculosis” (mBio, 2024).

Target: MmpL3
Conditions: previously measured; read-out: affinity to MmpL3; cited from earlier work

In the case of phosphatidylethanolamine [PE], the Kd is listed as 19.5 ± 6.3 µM.
For trehalose monomycolates [TMM], the Kd is listed as 3.7 ± 1.3 µM.
